Experimental data reported in the CheMixHub viscosity set.
± gives the uncertainty stated by the source.

Assay: xn = mol fraction of the nth substance listed

COc1ccccc1O + Nc1ccccc1
303.15 K, 101 kPa
Conditions | viscosity [mPa·s]
x2 = 0.1 | 4.74 ± 0.13
x2 = 0.2 | 4.9 ± 0.13
x2 = 0.3 | 5.11 ± 0.14
x2 = 0.35 | 5.15 ± 0.14
x2 = 0.4 | 5.23 ± 0.14
x2 = 0.45 | 5.12 ± 0.14
x2 = 0.5 | 5.09 ± 0.14
x2 = 0.55 | 4.94 ± 0.13
x2 = 0.6 | 4.86 ± 0.13
x2 = 0.7 | 4.58 ± 0.12
x2 = 0.8 | 4.23 ± 0.11
x2 = 0.9 | 3.61 ± 0.1

[Br-].[NH4+] + O
298.15 K, 101 kPa
Conditions | viscosity [mPa·s]
x1 = 0.0089 | 0.8738
x1 = 0.0177 | 0.8563
x1 = 0.0348 | 0.8265

Brc1ccccc1 + CCOC(C)=O
viscosity [mPa·s], 101 kPa
Conditions | 298.15 K | 308.15 K
x2 = 0.0463 | 0.997 ± 0.006 | 0.926 ± 0.006
x2 = 0.1501 | 0.906 ± 0.006 | 0.844 ± 0.006
x2 = 0.2468 | 0.829 ± 0.006 | 0.775 ± 0.005
x2 = 0.3482 | 0.756 ± 0.005 | 0.707 ± 0.005
x2 = 0.4571 | 0.686 ± 0.005 | 0.641 ± 0.005
x2 = 0.5073 | 0.656 ± 0.005 | 0.612 ± 0.005
x2 = 0.5465 | 0.633 ± 0.005 | 0.591 ± 0.005
x2 = 0.6468 | 0.58 ± 0.005 | 0.539 ± 0.005
x2 = 0.75 | 0.53 ± 0.005 | 0.49 ± 0.004
x2 = 0.848 | 0.487 ± 0.004 | 0.447 ± 0.004
x2 = 0.9469 | 0.448 ± 0.004 | 0.407 ± 0.004

COc1ccccc1O + CS(C)=O
viscosity [mPa·s], 101 kPa
Conditions | x2 = 0.2 | x2 = 0.3 | x2 = 0.4 | x2 = 0.5 | x2 = 0.6 | x2 = 0.7 | x2 = 0.8 | x2 = 0.9
298.15 K | 10.62 ± 0.12 | 12.4 ± 0.13 | 11.9 ± 0.12 | 9.46 ± 0.1 | 6.91 ± 0.07 | 4.97 ± 0.05 | 3.59 ± 0.04 | 2.66 ± 0.03
308.15 K | 6.47 ± 0.08 | 7.54 ± 0.1 | 7.38 ± 0.09 | 6.23 ± 0.07 | 4.81 ± 0.05 | 3.67 ± 0.04 | 2.83 ± 0.03 | 2.12 ± 0.02
318.15 K | 4.35 ± 0.06 | 5.01 ± 0.07 | 4.98 ± 0.07 | 4.4 ± 0.05 | 3.59 ± 0.04 | 2.8 ± 0.03 | 2.2 ± 0.02 | 1.75 ± 0.02

COc1ccccc1O + c1ccncc1
303.15 K, 101 kPa
Conditions | viscosity [mPa·s]
x2 = 0.1 | 5.04 ± 0.13
x2 = 0.2 | 5.38 ± 0.14
x2 = 0.25 | 5.4 ± 0.14
x2 = 0.27 | 5.42 ± 0.15
x2 = 0.3 | 5.4 ± 0.14
x2 = 0.4 | 4.94 ± 0.13
x2 = 0.5 | 4 ± 0.11
x2 = 0.6 | 3.3 ± 0.09
x2 = 0.7 | 2.07 ± 0.05
x2 = 0.8 | 1.48 ± 0.04
x2 = 0.9 | 1.09 ± 0.03

Brc1ccccc1 + Cc1cccc(C)c1
101 kPa
Conditions | viscosity [mPa·s]
293.15 K, x1 = 0.112 | 0.626 ± 0.011
293.15 K, x1 = 0.2214 | 0.677 ± 0.012
293.15 K, x1 = 0.3339 | 0.723 ± 0.013
293.15 K, x1 = 0.5406 | 0.818 ± 0.014
293.15 K, x1 = 0.6754 | 0.89 ± 0.015
293.15 K, x1 = 0.7672 | 0.936 ± 0.016
293.15 K, x1 = 0.848 | 0.978 ± 0.017
293.15 K, x1 = 0.9095 | 1.01 ± 0.017
298.15 K, x1 = 0.11 | 0.592 ± 0.011
298.15 K, x1 = 0.2179 | 0.635 ± 0.011
298.15 K, x1 = 0.3324 | 0.685 ± 0.012
298.15 K, x1 = 0.4083 | 0.715 ± 0.013
298.15 K, x1 = 0.5319 | 0.768 ± 0.013
298.15 K, x1 = 0.6412 | 0.819 ± 0.014
298.15 K, x1 = 0.7163 | 0.853 ± 0.015
298.15 K, x1 = 0.866 | 0.927 ± 0.016
303.15 K, x1 = 0.1106 | 0.555 ± 0.01
303.15 K, x1 = 0.2212 | 0.592 ± 0.011
303.15 K, x1 = 0.3352 | 0.639 ± 0.012
303.15 K, x1 = 0.414 | 0.67 ± 0.012
303.15 K, x1 = 0.5251 | 0.712 ± 0.013
303.15 K, x1 = 0.6553 | 0.767 ± 0.013
303.15 K, x1 = 0.765 | 0.815 ± 0.014
303.15 K, x1 = 0.8807 | 0.866 ± 0.015

COC(=O)CC(=O)OC + CCO
303.15 K, 101 kPa
Conditions | viscosity [mPa·s]
x1 = 0.0532 | 0.972 ± 0.0096
x1 = 0.1129 | 0.966 ± 0.0095
x1 = 0.1787 | 0.978 ± 0.0096
x1 = 0.2533 | 0.998 ± 0.0098
x1 = 0.337 | 1.037 ± 0.01
x1 = 0.4329 | 1.097 ± 0.011
x1 = 0.5426 | 1.181 ± 0.011
x1 = 0.6705 | 1.314 ± 0.013
x1 = 0.8207 | 1.513 ± 0.015

Ic1ccccc1 + c1ccccc1
viscosity [mPa·s], 101 kPa
Conditions | 298.15 K | 308.15 K | 318.15 K | 323.15 K
x1 = 0.0668 | 0.646 ± 0.017 | 0.565 ± 0.015 | 0.499 ± 0.014 | 0.469 ± 0.013
x1 = 0.0896 | 0.66 ± 0.018 | 0.578 ± 0.016 | 0.512 ± 0.014 | 0.478 ± 0.013
x1 = 0.8 | 1.274 ± 0.034 | – | – | 0.917 ± 0.025

C[N+](C)(C)CC(=O)[O-] + O=C(O)CC(O)(CC(=O)O)C(=O)O
101.3 kPa, x1 = 0.333
Conditions | viscosity [mPa·s]
298 K | 36920 ± 3600
323 K | 2775 ± 980

Nc1cccc(Cl)c1Cl + COCCO
313.15 K, 101 kPa
Conditions | viscosity [mPa·s]
x1 = 0.08697 | 1.48 ± 0.03
x1 = 0.1819 | 1.74 ± 0.04
x1 = 0.2858 | 2.04 ± 0.04
x1 = 0.4001 | 2.33 ± 0.05
x1 = 0.5264 | 2.63 ± 0.06
x1 = 0.6667 | 2.96 ± 0.06
x1 = 0.8236 | 3.25 ± 0.07

COC(=O)CC(=O)OC + ClC(Cl)(Cl)Cl
303.15 K, 101 kPa
Conditions | viscosity [mPa·s]
x1 = 0.0856 | 0.9503 ± 0.0094
x1 = 0.1747 | 1.064 ± 0.01
x1 = 0.2659 | 1.186 ± 0.012
x1 = 0.3608 | 1.295 ± 0.013
x1 = 0.4586 | 1.409 ± 0.014
x1 = 0.5599 | 1.52 ± 0.015
x1 = 0.6641 | 1.601 ± 0.016
x1 = 0.7723 | 1.687 ± 0.017
x1 = 0.8841 | 1.753 ± 0.017

COc1ccccc1O + CNc1ccccc1
303.15 K, 101 kPa
Conditions | viscosity [mPa·s]
x2 = 0.1 | 4 ± 0.11
x2 = 0.2 | 3.72 ± 0.1
x2 = 0.3 | 3.36 ± 0.09
x2 = 0.4 | 3.03 ± 0.08
x2 = 0.5 | 2.76 ± 0.07
x2 = 0.6 | 2.44 ± 0.06
x2 = 0.7 | 2.22 ± 0.06
x2 = 0.8 | 1.99 ± 0.05
x2 = 0.9 | 1.72 ± 0.05

Brc1ccccc1 + CN1CCCC1=O
viscosity [mPa·s], 101 kPa
Conditions | x2 = 0.1084 | x2 = 0.2149 | x2 = 0.3193 | x2 = 0.4219 | x2 = 0.5226 | x2 = 0.6215 | x2 = 0.7186 | x2 = 0.8141 | x2 = 0.9078
303.15 K | 1.068 ± 0.022 | 1.146 ± 0.022 | 1.22 ± 0.022 | 1.284 ± 0.022 | 1.344 ± 0.022 | 1.396 ± 0.023 | 1.441 ± 0.023 | 1.484 ± 0.023 | 1.522 ± 0.023
308.15 K | 1.023 ± 0.021 | 1.089 ± 0.022 | 1.148 ± 0.022 | 1.201 ± 0.022 | 1.25 ± 0.022 | 1.29 ± 0.022 | 1.326 ± 0.022 | 1.358 ± 0.022 | 1.382 ± 0.023
313.15 K | 0.9408 ± 0.021 | 1.005 ± 0.021 | 1.061 ± 0.022 | 1.113 ± 0.022 | 1.159 ± 0.022 | 1.199 ± 0.022 | 1.236 ± 0.022 | 1.268 ± 0.022 | 1.295 ± 0.022
318.15 K | 0.8512 ± 0.021 | 0.9073 ± 0.021 | 0.9593 ± 0.021 | 1.008 ± 0.021 | 1.052 ± 0.022 | 1.09 ± 0.022 | 1.126 ± 0.022 | 1.157 ± 0.022 | 1.184 ± 0.022

Brc1ccccc1 + CC(C)CO
viscosity [mPa·s], 101.33 kPa
Conditions | x1 = 0.1065 | x1 = 0.1936 | x1 = 0.2949 | x1 = 0.4015 | x1 = 0.5016 | x1 = 0.6014 | x1 = 0.7006 | x1 = 0.7967 | x1 = 0.8995
298.15 K | 2.649 ± 0.02 | 2.205 ± 0.017 | 1.831 ± 0.015 | 1.532 ± 0.012 | 1.36 ± 0.011 | 1.231 ± 0.01 | 1.144 ± 0.0095 | 1.088 ± 0.009 | 1.055 ± 0.0088
313.15 K | 1.727 ± 0.014 | 1.483 ± 0.012 | 1.28 ± 0.01 | 1.116 ± 0.0093 | 1.022 ± 0.0086 | 0.9534 ± 0.0081 | 0.9062 ± 0.0077 | 0.8769 ± 0.0075 | 0.8637 ± 0.0074

COc1ccccc1O + C1COCCO1
308.15 K, 101 kPa
Conditions | viscosity [mPa·s]
x2 = 0.1 | 4.29 ± 0.053
x2 = 0.2 | 4.18 ± 0.051
x2 = 0.3 | 3.795 ± 0.047
x2 = 0.4 | 3.347 ± 0.041
x2 = 0.5 | 2.73 ± 0.034
x2 = 0.6 | 2.231 ± 0.028
x2 = 0.7 | 1.834 ± 0.023
x2 = 0.8 | 1.453 ± 0.018
x2 = 0.9 | 1.172 ± 0.015

COc1ccccc1O + Cc1ccccc1N
303.15 K, 101 kPa
Conditions | viscosity [mPa·s]
x2 = 0.1 | 4.73 ± 0.13
x2 = 0.2 | 4.93 ± 0.13
x2 = 0.3 | 5.2 ± 0.14
x2 = 0.34 | 5.22 ± 0.14
x2 = 0.36 | 5.19 ± 0.14
x2 = 0.4 | 5.17 ± 0.14
x2 = 0.5 | 5.12 ± 0.14
x2 = 0.6 | 4.82 ± 0.13
x2 = 0.7 | 4.38 ± 0.12
x2 = 0.8 | 4 ± 0.11
x2 = 0.9 | 3.58 ± 0.1
